According to patent publication US5120748A, “Substituted 1,2,3,6-tetrahydropyridines as central nervous system agents” (Warner-Lambert Company, priority 1991, dated 1992):
pIC50: −log10 of the molar value.

Key:
locomotor activity = test: Inhibition of locomotor activity in mice; format: in vivo; settings: Mus musculus, IP
Procedure: (§1) The compounds of Formula I are valuable dopaminergic agents. […] Thus, the compounds of Formula I were tested for their ability to inhibit locomotor activity in mice according to the assay described by J. R. McLean, et al, Pharmacology, Biochemistry and Behavior, Volume 8, pages 97-99 (1978); for their ability to inhibit [^3 H]-spiroperidol binding in a receptor assay described by D. Griogoriadis and P. Seeman, Journal of Neurochemistry, Volume 44, pages 1925-1935 (1985); and for their ability to inhibit dopamine synthesis in rats according to the protocol described by J. R. Walters and R. H. Roth, Naunyn-Schmiedeberg's Archives of Pharmacology, Volume 296, pages 5-14 (1976). The above test methods are incorporated herein by reference. The data in the table show the dopaminergic activity of representative compounds of Formula I.

brain dopamine synthesis = test: Reversal of brain dopamine synthesis in rats (inhibition of dopamine synthesis); format: in vivo; settings: 10 mg/kg, IP
Procedure: as §1

[1] = molecular target: [^3 H]spiroperidol binding; test: Inhibition of [^3 H]spiroperidol binding in a receptor assay; settings: [^3 H]spiroperidol radioligand
Procedure: as §1

SMILES | ED50 (locomotor activity) | % Reversal of Brain Dopamine Synthesis in Rats (brain dopamine synthesis) | pIC50 [1]
C1=C(c2ccccc2)CCN(CCSCc2cccnc2)C1.Cl.Cl [Example 1, 3-[[[2-(1,2,3,6-Tetrahydro-4-phenyl-1-pyridinyl)ethyl]thio]methyl]pyridine, dihydrochloride] | 0.18 mg/kg | 70% | 
C1=C(c2cccs2)CCN(CCCSc2ccncc2)C1 [Example 2, 4-[[3-[3,6-Dihydro-4-(2-thienyl)-1(2H)-pyridinyl]propyl]thio]pyridine] | 0.5 mg/kg |  | 4.07
C1=C(c2ccccc2)CCN(CCCSc2ccncc2)C1 [Example 3, 4-[[3-(3,6-Dihydro-4-phenyl-1(2H)-pyridinyl)propyl]thio]pyridine] | 0.4 mg/kg | 48% | 4.34
C1=C(c2ccccc2)CCN(CCCCSc2ccncc2)C1 [Example 4, 1,2,3,6-Tetrahydro-4-phenyl-1-[4-(4-pyridinylthio)butyl]pyridine] | 1 mg/kg | 82% | 4.04
C1=C(c2cccs2)CCN(CCCCSc2ccncc2)C1.Cl.Cl [Example 5, 1,2,3,6-Tetrahydro-1-[4-(4-pyridinylthio)butyl]-4-(2-thienyl)pyridine, dihydrochloride] | 1.8 mg/kg | 47% | 3.72
